In patent US8871760B2, “[1,2,4]triazolo[3,4-C][1,4]oxazines as P2X7 modulators” (Roche Palo Alto LLC, priority 2009, dated 2014) one finds pIC50 and melting point data, which are given here for seven compounds.

For one data set, the target named is T1, human P2X7 (UniProt Q99572).
T1 sequence (Q99572 1-595): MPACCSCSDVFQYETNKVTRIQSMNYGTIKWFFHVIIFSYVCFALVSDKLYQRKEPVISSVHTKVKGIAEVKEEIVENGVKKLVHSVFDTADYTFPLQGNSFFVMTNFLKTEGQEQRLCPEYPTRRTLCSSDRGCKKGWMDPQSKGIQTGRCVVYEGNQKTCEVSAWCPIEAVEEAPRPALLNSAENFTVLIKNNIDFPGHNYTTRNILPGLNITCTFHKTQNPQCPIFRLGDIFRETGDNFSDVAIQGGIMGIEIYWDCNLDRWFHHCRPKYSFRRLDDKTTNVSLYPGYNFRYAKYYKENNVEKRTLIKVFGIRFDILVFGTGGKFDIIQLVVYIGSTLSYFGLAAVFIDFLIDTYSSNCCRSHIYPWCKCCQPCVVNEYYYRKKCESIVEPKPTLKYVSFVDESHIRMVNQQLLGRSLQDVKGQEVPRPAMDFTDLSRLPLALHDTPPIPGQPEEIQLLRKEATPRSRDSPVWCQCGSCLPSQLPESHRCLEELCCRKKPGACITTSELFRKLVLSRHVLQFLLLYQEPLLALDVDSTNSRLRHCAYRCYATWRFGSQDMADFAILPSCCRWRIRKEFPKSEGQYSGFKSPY
As to the kind of experiment: Intracellular Calcium Flux (FLIPR) Assay. The class given is cell-based. How it is done: Intracellular Calcium Flux (FLIPR) Assay
Compound and Reagent Preparation
Stock solutions of compounds were prepared from powders as a 10 mM DMSO stock solution. These solutions were stored at RT during the two week period of these experiments to prevent freeze-thaw of the DMSO stocks. The DMSO stocks were added to the appropriate assay buffer at a concentration of 10 μM, and then diluted serially to the final concentrations that were tested. No observable precipitate was formed at any time during this process. The aqueous solutions of compounds as well as ATP (Sigma A7699) and BzATP (Sigma B6396) were prepared fresh for each day of experiment.
1321N1 cells stably expressing the full length human P2X7 gene (1321N1-hP2X7) and HEK293 cells stably expressing the full length rat P2X7 gene (HEK293-rP2X7) were obtained from the Roche Cell Culture Facility. 1321N1-hP2X7 cells were grown in Dulbecco's Modified Eagle's Medium (DMEM) high glucose supplemented with 10% FBS and […] G418. HEK293-rP2X7 cells were grown in DMEM/F-12 supplemented with 10% FBS, 1 mM CaCl2, 2 mM MgCl2, 2 mM L-Glutamine and […] G418. Cells were split such that they never became >70% confluent.
Intracellular Calcium Flux (FLIPR)
On the day prior to the experiment, 1321N1-hP2X7 or HEK293-rP2X7 cells were released into suspension with calcium-free PBS+Versene and washed by centrifugation with calcium-free PBS to remove the Versene. Cells were resuspended in growth medium at a density of 2.5×10^5 cells/mL and seeded into black walled, clear bottom 96 well plates (50,000 cells/well) approximately 18 hr prior to intracellular calcium flux experiments.
On the day of the experiment, plates were washed with FLIPR buffer (calcium- and magnesium-free Hank's Balanced Salt Solution (HBSS) supplemented with 10 mM Hepes, 2.5 mM probenecid and 2 mM calcium chloride) using a BIO-TEK 96 channel plate washer and incubated with […] fluo-3 dye at 37° C. for one hr. The dye was then removed by plate washing and the cells were allowed to equilibrate for 20 min at room temperature with antagonist or vehicle (FLIPR buffer). Agonist (100 μM BzATP final concentration for hP2X7; 5 μM BzATP final concentration or rP2X7) was added online with the FLIPR and fluorescence measurements made at 1 sec intervals for 60 sec followed by 3 sec intervals for a further 4 min (5 min total). A final addition of 5 μM ionomycin was made and the maximal BzATP-evoked fluorescence normalized to the maximal ionomycin-evoked fluorescence.
(Calcium flux is commonly read through the fluorescence of an indicator in the cells.)

What is called pIC50 is −log10 of the IC50, conventionally taken in molar units. One may read the melting point as the temperature, or range, at which the solid turns liquid. In turn, `COc1cc(C)c(Nc2nnc3n2C(c2ccc(F)cc2)CSC3)cc1OC` (centres unmarked) [Compound 18, (4,5-Dimethoxy-2-methyl-phenyl)-[5-(4-fluoro-phenyl)-5,6-dihydro-8H-[1,2,4]triazolo[3,4-c][1,4]thiazin-3-yl]-amine] yielded a melting point of 165 to 166 °C. For the same compound, the negative logarithm of the IC50 (pIC50) at human P2X7 was determined as 7.58.

Turning to `COc1cc(C)c(Nc2nnc3n2C(c2ccc(F)cc2)CS(=O)(=O)C3)cc1OC` (centres unmarked) [Compound 19, (4,5-Dimethoxy-2-methyl-phenyl)-[5-(4-fluoro-phenyl)-7,7-dioxo-5,6,7,8-tetrahydro-7λ^6-[1,2,4]triazolo[3,4-c][1,4]thiazin-3-yl]-amine], the melting point fell in the range of 226 to 227 °C. On human P2X7, the pIC50 was determined as 6.96.

`Cc1cc(Cl)c(OCCO)cc1Nc1nnc2n1[C@H](c1ccc(F)cc1)COC2` [Compound 21, 2-{2-Chloro-5-[(R)-5-(4-fluoro-phenyl)-5,6-dihydro-8H-[1,2,4]triazolo[3,4-c][1,4]oxazin-3-ylamino]-4-methyl-phenoxy}-ethanol] displayed a melting point of 161 to 162 °C. Also, on human P2X7, the pIC50 was determined as 7.59.

`Cc1cc2cnn(CCO)c2cc1Nc1nnc2n1[C@H](c1ccc(F)cc1)COC2` [Compound 39, 2-{6-[(R)-5-(4-Fluoro-phenyl)-5,6-dihydro-8H-[1,2,4]triazolo[3,4-c][1,4]oxazin-3-ylamino]-5-methyl-indazol-1-yl}-ethanol] registered a melting point of 215 to 217 °C. Moreover, the pIC50 on human P2X7 came out at 7.605.

For the compound `Cc1ccc(-c2ccnn(CCO)c2=O)cc1Nc1nnc2n1[C@H](c1ccc(F)cc1)COC2` [Compound 52, 4-{3-[(R)-5-(4-Fluoro-phenyl)-5,6-dihydro-8H-[1,2,4]triazolo[3,4-c][1,4]oxazin-3-ylamino]-4-methyl-phenyl}-2-(2-hydroxy-ethyl)-2H-pyridazin-3-one], the pIC50 at human P2X7 is listed as 8.09.

With `O=C1NCCCN1c1ccc(Br)c(Nc2nnc3n2[C@H](c2ccc(F)cc2)COC3)c1` [Compound 54, 1-{4-Bromo-3-[(R)-5-(4-fluoro-phenyl)-5,6-dihydro-8H-[1,2,4]triazolo-[3,4-c][1,4]oxazin-3-ylamino]-phenyl}-tetrahydro-pyrimidin-2-one], at human P2X7, the negative logarithm of the IC50 (pIC50) is 7.325.

For the compound `Cn1nccc(-c2ccc(F)c(Nc3nnc4n3[C@H](c3ccc(F)cc3)COC4)c2)c1=O` [Compound 55, 4-{4-Fluoro-3-[(R)-5-(4-fluoro-phenyl)-5,6-dihydro-8H-[1,2,4]triazolo[3,4-c][1,4]oxazin-3-ylamino]-phenyl}-2-methyl-2H-pyridazin-3-one], the pIC50 at human P2X7 is listed as 8.035.
